# Measured values taken from ChEMBL document CHEMBL4477248, “Blinded predictions of binding modes and energies of HSP90-α ligands for the 2015 D3R grand challenge” (Bioorg Med Chem, 2016).
# Active and inactive are the calls of the source. No cut-off for these calls is given here.
# Biological target: Heat shock protein HSP 90-alpha (Homo sapiens, UniProt P07900)
# Experiment: Inhibition of HSP90alpha (unknown origin)
inhibition,IC50 [nM],Compound
Active,–,CC(=O)Oc1ccc2c(=O)c(Cc3ccccc3)c(C)oc2c1OC(C)=O
–,> 1000,COc1cc(F)c(Cl)cc1C(=O)c1ccc(OCc2ccccc2)cc1
–,> 1000,CCn1c(=O)n(-c2ccccc2OC)c2ccccc21
inactive,–,CCOC(=O)CC1(C)Oc2ccccc2O1
–,> 1000,O=C1c2ccccc2-c2ccccc21
inactive,–,CC(=O)Oc1ccc([N+](=O)[O-])c2ccccc12
Active,–,O=C1c2ccccc2C(=O)c2c1ccc1nonc21
–,> 1000,COC(=O)c1cc(C(=O)c2ccc(OC)cc2)cc(C(=O)OC)c1OC
Active,–,Cn1c2c([n+](C)c1CCl)C(=O)c1ccccc1C2=O
–,5,O=c1[nH]c2cc(CNS(=O)(=O)c3cccnc3)ccc2n1-c1cc(Cl)c(O)cc1O
